The test system of experiment [1] is XFD (dominant negative FGF receptor). Nature of the experiment: Zebrafish mRNA microinjection, rescue of sef expression, XFD. The format is in vivo. To be noted: 5 μM BCI, shield stage. As for the experimental part:
dusp6 and XFD mRNA for microinjection studies were generated as previously described (Tsang, M. et al. Development 131, 2769-79 (2004)). Both Dusp5 and Spry4 ORFs were amplified by RT-PCR from 24 hpf zebrafish with the following primers: […]
Amplified PCR products were subcloned into pCS2+, sequenced verified and mRNAs were synthesized as described previously. Embryos were injected with 500 pg mRNA at the 1-2 cell stage, treated with 5 μM BCI at the 1000-cell stage and fixed at shield stage for in situ hybridization.
In situ hybridization experiments were carried out as described previously (Kudoh, T. et al. Genome Res 11, 1979-87 (2001)). The probes eng3, krox20, sef, dusp6, gata4, nkx2.5, cmlc2, vmhc, scl, etsrp and hand2 were generated with a RNA labeling kit (Roche) (Tsang, M. et al. Development 131, 2769-79 (2004); Chen, J. N. et al. Development 122, 3809-16 (1996); Ekker, M., et al. Development 116, 1001-10 (1992); Liao, E. C. et al. Genes Dev 12, 621-6 (1998); Oxtoby, E. et al. Nucleic Acids Res 21, 1087-95 (1993); Pham, V. N. et al. Dev Biol 303, 772-83 (2007); Tsang, M., et al. Nat Cell Biol 4, 165-9 (2002); Yelon, D., et al. Dev Biol 214, 23-37 (1999); and Yelon, D. et al. Development 127, 2573-82 (2000)). The double fluorescent in situ hybridization protocol was described by Schoenbeck et al. (Dev Cell 13, 254-67 (2007)). […]

Experiment [2] has as its target Dusp3/VHR (Homo sapiens, UniProt P51452). The experiment in a line: OMFP phosphatase assay, Dusp3/VHR. The format is biochemical. To be noted: n=3, OMFP substrate, 15.2 nM-300 μM; read-out: mean in vitro values, VHR. As to the method:
Enzyme activities in the presence or absence of BCI were measured using the artificial substrate […] at concentrations equal to the Km of each enzyme (Cdc25B, PTP1B & Dusp3/VHR) and at optimal pH for individual enzyme activity in a 96-well microtiter plate assay based on previously described methods by Lazo et al. (J Med Chem 44, 4042-9 (2001) and Lazo, J. S. et al. Bioorg Med Chem 14, 5643-50 (2006)). Briefly, the standard assay conditions contained 0.02 mg/ml OMFP in assay buffer (30 mM Tris-HCl (pH8.0), 75 mM NaCl, 1 mM EDTA, 0.33% BSA and 1 mM DTT). Fluorescence emission was measured after a sixty-minute incubation period at ambient temperature using a multiwell plate reader (SpectraMax m5, […]; excitation 485 nm, emission 525 nm). Sodium orthovanadate (100 μM) was used as a positive control for full phosphatase inhibition. IC50 concentrations were determined from three experiments using 10 concentrations of BCI ranging from 300 μM to 15.2 nM and GraphPad Prism 5.0 software.

In experiment [3] the target is T1, ERK2-stimulated Dusp6 (Homo sapiens, UniProt Q16828).
T1 construct: His; made in house
Nature of the experiment: ERK2-induced activation of Dusp6, OMFP dephosphorylation. The class given is biochemical. To be noted: BCI 100 μM. As for the experimental part: For OMFP based ERK2 induced activation of Dusp6, recombinant His-tagged Dusp6 was expressed from a bacterial expression vector and 250 ng were incubated with the indicated concentrations of NSC95397 or BCI. OMFP was added at its apparent Km (100 μM) (Vogt, A. et al. J Biol Chem 280, 19078-86 (2005)). The final reaction volume was 15 μl. After 1 h at RT, OMF fluorescence was measured on an M5 multimode reader (Molecular Devices) at excitation/emission wavelengths of 485/525 nm. To assay activated Dusp6, 210 ng or 2.1 μg of recombinant ERK2 (Cell signaling) were added to Dusp6(210 ng)/BCI(100 μM) mixtures to measure activation at 1:1 and 1:10 ratio of substrate to enzyme. OMFP was immediately added and fluorescence (ex485/em525 nm) was read every 10 min for 130 min. Fold activation was calculated at 60 mins in each experiment.

The source of these data is patent US9127016B2, “Small molecule inhibitors of Dusp6 and uses therefor” (University of Pittsburgh—Of the Commonwealth System of …, priority 2009, dated 2015).

Some results are limits rather than exact numbers.

T1 sequence (Q16828 whole entry): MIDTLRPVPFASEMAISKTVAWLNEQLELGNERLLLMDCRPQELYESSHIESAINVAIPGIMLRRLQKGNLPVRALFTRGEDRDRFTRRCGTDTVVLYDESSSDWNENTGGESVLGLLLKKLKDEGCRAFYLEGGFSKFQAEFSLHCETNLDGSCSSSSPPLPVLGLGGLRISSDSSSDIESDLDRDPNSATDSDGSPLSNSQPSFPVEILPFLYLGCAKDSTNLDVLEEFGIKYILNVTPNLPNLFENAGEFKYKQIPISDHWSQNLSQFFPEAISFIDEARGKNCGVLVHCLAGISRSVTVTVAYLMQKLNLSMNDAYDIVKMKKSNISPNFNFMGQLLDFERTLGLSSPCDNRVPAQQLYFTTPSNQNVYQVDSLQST
T1 sequence (P28482 whole entry partner): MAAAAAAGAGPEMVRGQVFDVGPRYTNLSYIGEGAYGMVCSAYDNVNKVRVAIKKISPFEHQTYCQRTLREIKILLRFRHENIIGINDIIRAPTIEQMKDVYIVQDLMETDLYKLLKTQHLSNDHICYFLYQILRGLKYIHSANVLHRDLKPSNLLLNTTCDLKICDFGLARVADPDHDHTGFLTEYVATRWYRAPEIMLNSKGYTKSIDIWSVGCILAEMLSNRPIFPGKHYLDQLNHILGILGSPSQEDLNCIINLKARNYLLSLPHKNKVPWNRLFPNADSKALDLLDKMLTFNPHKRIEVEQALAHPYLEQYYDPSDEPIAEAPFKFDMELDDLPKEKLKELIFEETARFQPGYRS
Dusp3/VHR, sequence (P51452 whole entry): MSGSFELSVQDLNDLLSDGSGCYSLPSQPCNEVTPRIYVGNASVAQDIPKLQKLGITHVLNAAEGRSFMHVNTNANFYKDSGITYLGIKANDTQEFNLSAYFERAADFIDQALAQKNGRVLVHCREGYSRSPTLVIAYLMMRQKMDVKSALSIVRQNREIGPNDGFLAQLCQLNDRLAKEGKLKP

For the compound `O=C1/C(=C/c2ccccc2)C(NC2CCCCC2)c2ccccc21` (stereo not shown) [Compound 3, (E)-2-benzylidene-3-(cyclohexylamino)-2,3-dihydro-1H-inden-1-one], the “reversal of effects of XFD mRNA on sef expression” value in experiment [1] is given as “did not reverse”. Moreover, in experiment [2], the IC50 was above 300 µM. For the same compound, the “inhibition of ERK2-stimulated Dusp6 dephosphorylation of OMFP” value turned out to be 57% in experiment [3] (ERK2 three-fold stimulation (1:1)) and 30% in experiment [3] (ratio of ERK2 to Dusp6 10:1, 7-fold enhancement).
